Assay results published in patent US9145436B2 (priority 2010, dated 2015).
Read-outs that look alike come from different tables or passages of the source.

Columns and labels:
HeLa = assay: Cytotoxicity of the substances (TC50), HeLa; type: cell-based; conditions: HeLa cells
Jurkat = assay: Cytotoxicity of the substances (TC50), Jurkat; type: cell-based; conditions: Jurkat cells
E. coli = assay: Antibiotic dilution assay, E. coli; type: cell-based; conditions: liquid medium, OD600, read-out: Bacterial IC 50 (μM) E. Coli
Method: (§1) The antibiotic activity of the compounds was determined via antibiotic dilution assay. After filling 100 μl growth medium into all the wells of a 96 well plate, the compounds were diluted from 1 mM to 0.010 μM. The growth control wells contained growth medium instead of inhibitory agents. The inhibitory control contained Compound 3 (200 μM). Suspensions of E. coli and B. pumilus in growth medium with an approximate OD600 of 0.03-0.04 were added to the diluted compounds, incubated for 6-8 hours on the shaker at 750 rpm and 37° C. until the growth control had reached an OD600 of about 0.6-0.8. The OD600 was then determined on a standard plate reader.
(§2) Various analogs were compared in vitro to determine key properties. Antibacterial effect was determined in representative Gram negative (E. coli) and positive (S. aureus) organisms using the method of example 16. Effects on lung inflammation were compared using the method of example 32. BALF (Bronchoalveolar Lavage Fluid) TNFa levels are determined by ELISA. In vitro toxicity is determined by growth inhibition of Jurkat lymphocytes in DMEM medium as determined using Alamar Blue reaction. Effects on cytokine production are determined in J774 cells stimulated with either LPS (0.1 μg/mL) or medium from J774 cells stimulated for 24 h with 0.2 μg/mL LPS. Cytokines are determined by ELISA and expressed as % DMSO control at 50 μM inhibitor concentration.

S. aureus = assay: Antibiotic dilution assay, S. aureus; type: cell-based; conditions: liquid medium, OD600, read-out: Bacterial IC 50 (μM) S. Aureus
Method: as §1, §2

BALF TNFa = assay: Airway inflammation by inhaled LPS, BALF TNFa by ELISA; type: in vivo, DBA or Swiss female mice; conditions: 30 minutes prior to LPS challenge
Method: as §2
Airway inflammation is induced by inhalation of solutions containing bacterial LPS. 10 μg per mouse is provided intranasally in phosphate buffered saline. 90 minutes after challenge, bronchioalveolar lavage fluid is recovered from the lung using PBS (0.5 mL) injected into the lung via the trachea and frozen prior to analysis for cytokines by ELISA. TNFa is the primary cytokine measured. Compound 2 and other test substances are dissolved in 0.02% citric acid in water, and the pH of the resulting solution is set to 6.2. Compounds are administered 30 minutes prior to challenge either as 25 μL solutions for intranasal use, or as 125 μL volumes for p.o. application in 25 g DBA or Swiss female mice. The results of said interventions include reduction of lung and/or plasma cytokines. Example data are recorded in FIG. 13.

Jurkat lymphocytes = assay: In vitro toxicity: growth inhibition of Jurkat lymphocytes, Alamar Blue; type: cell-based; conditions: DMEM medium
Method: as §2

[1] = system: TNFa production in J774 cells; assay: Cytokine production in stimulated J774 cells, TNFa (ELISA); type: cell-based; conditions: Normal (LPS 0.1 μg/mL)
Method: as §2

[2] = system: GM_CSF production in J774 cells; assay: Cytokine production in stimulated J774 cells, GM-CSF (ELISA); type: cell-based; conditions: Cond. (medium from J774 cells stimulated 24 h with 0.2 μg/mL LPS)
Method: as §2

[3] = system: IL-10 production in J774 cells; assay: Cytokine production in stimulated J774 cells, IL-10 (ELISA); type: cell-based; conditions: Normal (LPS 0.1 μg/mL)
Method: as §2

[4] = system: IL-12 production in J774 cells; assay: Cytokine production in stimulated J774 cells, IL-12 (ELISA); type: cell-based; conditions: Normal (LPS 0.1 μg/mL)
Method: as §2

bacteria = conditions: relative to azithromycin; cited from earlier work

IC50 (E. coli; Escherichia coli) | IC50 (S. aureus; Staphylococcus aureus) | IC50 (E. coli) | IC50 (S. aureus) | Structure (SMILES) | TC50 HeLa (HeLa) | TC50 Jurkat (Jurkat) | BALF TNFa (% Vehicle) 20 μmol/kg i.n. (BALF TNFa) | Jurkat Cell toxicity Normal growth limit (Jurkat lymphocytes) | Cytokine production in J774 cells as % DMSO control, TNFa Normal 50 μM [1] | Cytokine production in J774 cells as % DMSO control, GM_CSF Cond. 50 μM [2] | Cytokine production in J774 cells as % DMSO control, IL-10 Normal 50 μM [3] | Cytokine production in J774 cells as % DMSO control, IL-12 Normal 50 μM [4] | BALF TNFa (% Vehicle) 200 μmol/kg p.o. (BALF TNFa) | antibacterial effectiveness, fold less effective than the cladinosylated molecule (bacteria)
5.5 µM | 2.25 µM |  |  | CC[C@H]1OC(=O)[C@H](C)[C@@H](O[C@H]2C[C@@](C)(OC)[C@@H](O)[C@H](C)O2)[C@H](C)[C@@H](O[C@@H]2O[C@H](C)C[C@H](N(C)C)[C@H]2O)[C@](C)(O)C[C@@H](C)CN(C)[C@H](C)[C@@H](O)[C@]1(C)O [Compound 3, 9a-aza-9a-methyl-9-deoxo-9a-homoerythromycin A, reference compound] | > 100 µM | > 100 µM | 75 % Vehicle | 100 µM | 96 % DMSO control | 118 % DMSO control | 122 % DMSO control | 60 % DMSO control |  | 
 |  |  |  | CCC1OC(=O)C(C)C2(O)OC(C)(CC(C)CN(C)C(C)C(=O)C1(C)O)C(OC1OC(C)CC(N(C)C)C1O)C2C (stereo not drawn) [Compound 4, 14-(4-Dimethylamino-3-hydroxy-6-methyl-tetrahydro-pyran-2-yloxy)-5-ethyl-1,6-dihydroxy-2,6,8,9,11,13,15-heptamethyl-4,16-dioxa-9-aza-bicyclo[11.2.1]hexadecane-3,7-dione] | > 100 µM | > 100 µM |  |  |  |  |  |  |  | 
980 µM | 2600 µM |  |  | CCOC(=O)CC1(C)C(=O)O[C@H](CC)[C@@](C)(O)[C@H](O)[C@@H](C)N(C)C[C@H](C)C[C@]2(C)O[C@@]1(O)[C@H](C)[C@H]2O[C@@H]1O[C@H](C)CC(N(C)C)[C@H]1O (stereo partly drawn) [Compound 5, [14-(4-Dimethylamino-3-hydroxy-6-methyl-tetrahydro-pyran-2-yloxy)-5-ethyl-1,6,7-trihydroxy-2,6,8,9,11,13,15-heptamethyl-3-oxo-4,16-dioxa-9-aza-bicyclo[11.2.1]hexadec-2-yl]-acetic acid ethyl ester] |  | > 100 µM | 90 % Vehicle | 100 µM | 39 % DMSO control | 114 % DMSO control | 95 % DMSO control | 7 % DMSO control |  | 
1090 µM | 1920 µM |  |  | CC[C@H]1OC(=O)[C@H](C)C(O)[C@H](C)[C@@H](O[C@@H]2O[C@H](C)CC([N+](C)(C)[O-])[C@H]2O)[C@](C)(O)C[C@@H](C)C[N+](C)([O-])[C@H](C)[C@@H](O)[C@]1(C)O (stereo partly drawn) [Compound 5b] |  |  | 56 % Vehicle | 100 µM | 88 % DMSO control | 81 % DMSO control | 116 % DMSO control | 67 % DMSO control |  | 
1270 µM | 1970 µM |  |  | CC[C@H]1OC(=O)[C@H](C)C(=O)[C@H](C)[C@@H](O[C@@H]2O[C@H](C)CC(N(C)C)[C@H]2OC(C)=O)[C@](C)(O)C[C@@H](C)CN(C)[C@H](C)[C@@H](O)[C@]1(C)O (stereo partly drawn) [Compound 8] |  |  | 81 % Vehicle | 100 µM | 85 % DMSO control | 83 % DMSO control | 134 % DMSO control | 45 % DMSO control | 67 % Vehicle | 
 |  | 1950 µM | 2500 µM | CCCCCCCCC=CCCCCCCCC(=O)OC1C(OC2C(C)C(=O)C(C)C(=O)OC(CC)C(C)(O)C(OC(=O)CCCCCCCC=CCCCCCCCC)C(C)N(C)CC(C)CC2(C)O)OC(C)CC1N(C)C (stereo not drawn) [Compound 9b] |  |  | 112 % Vehicle | 100 µM | 89 % DMSO control | 53 % DMSO control | 123 % DMSO control | 76 % DMSO control |  | 
 |  | 1090 µM | 2340 µM | CCC1OC(=O)C(C)C(=O)C(C)C(OC2OC(C)CC(NC)C2O)C(C)(O)CC(C)CN(C)C(C)C(O)C1(C)O (stereo not drawn) [Compound 11] |  |  | 80 % Vehicle | 100 µM | 86 % DMSO control | 174 % DMSO control | 96 % DMSO control | 53 % DMSO control | 98 % Vehicle | 
 |  | 2140 µM | 1570 µM | CC[C@H]1OC(=O)[C@H](C)C(O)[C@H](C)[C@@H](O[C@@H]2O[C@H](C)C[C@H](N(C)C)[C@H]2O)/C(C)=C/[C@@H](C)CN(C)[C@H](C)[C@@H](O)[C@]1(C)O (stereo partly drawn) [Compound 13] |  |  | 78 % Vehicle | 100 µM | 99 % DMSO control | 193 % DMSO control | 98 % DMSO control | 47 % DMSO control |  | 
1320 µM | 1950 µM |  |  | CC[C@H]1OC(=O)[C@H](C)[C@@]2(O)O[C@@](C)(C[C@@H](C)CN[C@H](C)[C@@H](O)[C@]1(C)O)[C@H](O[C@@H]1O[C@H](C)C[C@H](NC)[C@H]1O)[C@H]2C [Compound 14] |  |  | 62 % Vehicle | 100 µM | 93 % DMSO control | 153 % DMSO control | 95 % DMSO control | 143 % DMSO control | 95 % Vehicle | 
1350 µM | 1600 µM |  |  | CC[C@H]1OC(=O)[C@H](C)C(=O)[C@H](C)[C@@H](O[C@@H]2O[C@H](C)CC(N(C)C)[C@H]2O)[C@](C)(O)C[C@@H](C)CN(C)[C@H](C)[C@H]2OC(=O)O[C@@]21C (stereo partly drawn) [Example 10] |  |  | 99 % Vehicle | 100 µM | 72 % DMSO control | 14 % DMSO control | 118 % DMSO control | 40 % DMSO control |  | 
 |  |  |  | CC[C@H]1OC(=O)[C@H](C)[C@@H](O)[C@H](C)[C@@H](O[C@@H]2O[C@H](C)C[C@H](N(C)C)[C@H]2O)[C@](C)(O)C[C@@H](C)CN(C)[C@H](C)[C@@H](O)[C@]1(C)O [decladinosyl azithromycin] |  |  |  |  |  |  |  |  |  | ca. 5 fold
